Source: US7691965B2, “Helical synthetic peptides that stimulate cellular cholesterol efflux” (The Regents of the University of California, priority 2002, dated 2010)
Where a SMILES comes first, the peptide text is derived from it.

B1: ARMEEMGSRTRDRLDEVKEQVAEVRAKLEEQAQQIRLQAEAFQARLKSWFEPLVEDMQRQWAGLVEKVQAAVGTSAAPVPSDNH (protein)
chain: ARMEEMGSRTRDRLDEVKEQVAEVRAKLEEQAQQIRLQAEAFQARLKSWFEPLVEDMQRQWAGLVEKVQAAVGTSAAPVPSDNH
modifications: apolipoprotein Apo E, C-terminal domain (aa216-299)
notes: C-terminal domain, amino acid residues 216-299 of Apo E

Experiments:
[1] = Relative lipid binding affinity by surface balance technique (monolayer exclusion pressure); assay type: physicochemical; settings: surface balance technique
Description: Relative Lipid Binding Affinity, Hydrophobicity, and Amphiphilicity of Synthetic Peptides—In some experiments, the relative lipid binding affinity of unique peptides was quantified using a surface balance technique (Gillotte, K L. et al., J. Biol. Chem., 274:2021-2028 (1999)). For routine analyses, a turbid solution of dimyristoylphosphatidylcholine (DMPC) was used to assess the relative capacity of synthetic peptides to solubilize phospholipid as described (Palgunachari, M. N. et al., Arterioscler. Thromb. Vasc. Biol., 16:328-338 (1996); McLean, L. R. and Hagaman, K. A., Biochim. Biophys. Acta, 1167:289-295 (1993)). The DMPC was used at a final concentration of 0.08 mg/ml in 10 mM Tris-saline (pH 7.4). The final weight ratio of peptides relative to DMPC was 1:1. The absorbance (400 nm) of samples was monitored continuously over a period of 30 min at 25° C. Hydrophobicity of helical peptides was calculated using the consensus scale (Eisenberg D., Annu. Rev. Biochem., 53:593-623 (1984)). The hydrophobic moment (kcal/mol) of synthetic peptides, which is a measure of helix amphiphilicity, was calculated as described by Eisenberg et al. (Eisenberg, D. et al., Nature, 299:371-374 (1982)).

ABCA1 [2] = molecular target: T1, ABCA1 (Mus musculus, UniProt P41233); assay: Cellular cholesterol efflux from [3H]cholesterol-labeled J774 macrophages with and without cAMP analog; assay type: cell-based; parameters: endogenous in cells; host or cells: J774 macrophages treated with a cAMP analog (CPT-cAMP or 8-bromo-cAMP); settings: lipid-free acceptor, J774 macrophages with vs without cAMP analog
Description: Suitable cholesterol efflux assays are described in, e.g., Bielicki, J. K and Oda, M. N., Biochemistry, 41:2089-2096 (2002); Jia, Z. et al., Biochem. Biophys. Res. Common., 297:206-213 (2002). In some embodiments, a polypeptide known to mediate cholesterol efflux (e.g., helix 9/10 of Apo A-I) is used to screen for additional mediators of cholesterol efflux in a cell based assay. For example, cell lines in which cholesterol efflux can be enhanced using a cAMP analog that up-regulates ABCA1 protein expression (e.g., J774 macrophages) can conveniently be used to assess the ability of an Apo A-I, Apo A-II, Apo A-IV, Apo E, Apo C-I, Apo C-II, Apo C-III, or Serum Amyloid A peptide to mediate cholesterol efflux. The cells are incubated with labeled cholesterol (e.g., [^3H]cholesterol) under conditions appropriate for cholesterol uptake by the cells. cAMP or cAMP analogs (e.g., CPT-cAMP) is incubated with the cells for a suitable time before the initiation of cellular cholesterol efflux, i.e., prior to contacting the cells with helix 9/10 of Apo A-I or the test compound. Measurement of labeled cholesterol appearing in the medium is used to determine the cholesterol efflux mediating activity of the test compound.
Cellular Cholesterol Efflux Protocol—J774 macrophages were used to assess the cholesterol efflux properties of synthetic amphipathic α-helical peptides (Bielicki, J. K and Oda, M. N., Biochemistry, 41:2089-2096 (2002); Jia, Z. et al., Biochem. Biophys. Res. Common., 297:206-213 (2002)). This cell line was chosen because cholesterol efflux can be enhanced using a cAMP analog that up-regulates ABCA1 protein expression. The cells were seeded onto 24-well culture plates and labeled for 48 h with [^3H]cholesterol in RPMI 1640 supplemented with 1% fetal bovine serum. The cAMP analog CPT-cAMP was added (0.3 mM, final concentration) to the cells at least 12 h before the initiation of cellular cholesterol efflux. Synthetic peptides in lipid-free form were added to cells in serum-free RPMI. The lipid-free form of full-length recombinant apoA-I was used as a positive control to define apparent ABCA1-dependent cholesterol efflux in the presence and absence of cAMP stimulation. Efflux results were expressed as a percentage of the initial cellular [^3H] appearing in the medium as a function of time subtracting the background efflux obtained using serum-free medium alone.

ABCA1 [3] = molecular target: T1, ABCA1; assay: ABCA1 stabilization: immunoblot of ABCA1 protein in J774 macrophage membranes after cAMP withdrawal; assay type: cell-based; parameters: J774 macrophages were used to assess relative ABCA1 protein levels in the presence and absence of synthetic peptides; endogenous in cells; host or cells: J774 macrophages treated with a cAMP analog (CPT-cAMP or 8-bromo-cAMP); settings: 20 μg/ml peptide, 6 h without cAMP, J774 macrophages
Procedure: J774 macrophages were incubated (18 h) with 0.5 mM 8-bromo-cAMP in medium containing 0.1% bovine serum albumin to up-regulate ABCA1 protein expression. Washed cells were subsequently exposed for 6 h to bovine serum albumin medium with (+) or without (−) 8-bromo-cAMP and the indicated synthetic peptides (20 μg/ml). None refers to no peptides. The cellular membrane content of ABCA1 protein was measured by immunoblot analysis.
ABCA1 Stabilization—J774 macrophages were used to assess relative ABCA1 protein levels in the presence and absence of synthetic peptides. Cells were grown in 10% fetal bovine serum, extensively rinsed, and incubated (18 h) with Dulbecco's modified Eagle's medium containing 0.1% bovine serum albumin plus the cAMP analog 8-bromo-cAMP. Cells were next exposed to synthetic peptides or serum-free medium in the absence of the cAMP stimulus to evaluate whether ABCA1 protein was stabilized or degraded. Relative levels of ABCA1 protein were assessed by immunoblot analysis of cell membranes (Oram, J. F. et al., J. Biol. Chem., 278:52379-52385 (2003)). ABCA1 was visualized using an enhanced chemiluminescence detection assay.
To assess ABCA1 stabilization, J774 macrophages were treated with a cAMP analog to up-regulate ABCA1 protein expression and then incubated for 6 h without cAMP. In the absence of inducer, ABCA1 protein is rapidly degraded in these cells (FIG. 9). […] Thus, it appears that the helical combinations that stimulate cholesterol efflux also stabilize the ABCA1 transporter.

T1 sequence (P41233 whole entry): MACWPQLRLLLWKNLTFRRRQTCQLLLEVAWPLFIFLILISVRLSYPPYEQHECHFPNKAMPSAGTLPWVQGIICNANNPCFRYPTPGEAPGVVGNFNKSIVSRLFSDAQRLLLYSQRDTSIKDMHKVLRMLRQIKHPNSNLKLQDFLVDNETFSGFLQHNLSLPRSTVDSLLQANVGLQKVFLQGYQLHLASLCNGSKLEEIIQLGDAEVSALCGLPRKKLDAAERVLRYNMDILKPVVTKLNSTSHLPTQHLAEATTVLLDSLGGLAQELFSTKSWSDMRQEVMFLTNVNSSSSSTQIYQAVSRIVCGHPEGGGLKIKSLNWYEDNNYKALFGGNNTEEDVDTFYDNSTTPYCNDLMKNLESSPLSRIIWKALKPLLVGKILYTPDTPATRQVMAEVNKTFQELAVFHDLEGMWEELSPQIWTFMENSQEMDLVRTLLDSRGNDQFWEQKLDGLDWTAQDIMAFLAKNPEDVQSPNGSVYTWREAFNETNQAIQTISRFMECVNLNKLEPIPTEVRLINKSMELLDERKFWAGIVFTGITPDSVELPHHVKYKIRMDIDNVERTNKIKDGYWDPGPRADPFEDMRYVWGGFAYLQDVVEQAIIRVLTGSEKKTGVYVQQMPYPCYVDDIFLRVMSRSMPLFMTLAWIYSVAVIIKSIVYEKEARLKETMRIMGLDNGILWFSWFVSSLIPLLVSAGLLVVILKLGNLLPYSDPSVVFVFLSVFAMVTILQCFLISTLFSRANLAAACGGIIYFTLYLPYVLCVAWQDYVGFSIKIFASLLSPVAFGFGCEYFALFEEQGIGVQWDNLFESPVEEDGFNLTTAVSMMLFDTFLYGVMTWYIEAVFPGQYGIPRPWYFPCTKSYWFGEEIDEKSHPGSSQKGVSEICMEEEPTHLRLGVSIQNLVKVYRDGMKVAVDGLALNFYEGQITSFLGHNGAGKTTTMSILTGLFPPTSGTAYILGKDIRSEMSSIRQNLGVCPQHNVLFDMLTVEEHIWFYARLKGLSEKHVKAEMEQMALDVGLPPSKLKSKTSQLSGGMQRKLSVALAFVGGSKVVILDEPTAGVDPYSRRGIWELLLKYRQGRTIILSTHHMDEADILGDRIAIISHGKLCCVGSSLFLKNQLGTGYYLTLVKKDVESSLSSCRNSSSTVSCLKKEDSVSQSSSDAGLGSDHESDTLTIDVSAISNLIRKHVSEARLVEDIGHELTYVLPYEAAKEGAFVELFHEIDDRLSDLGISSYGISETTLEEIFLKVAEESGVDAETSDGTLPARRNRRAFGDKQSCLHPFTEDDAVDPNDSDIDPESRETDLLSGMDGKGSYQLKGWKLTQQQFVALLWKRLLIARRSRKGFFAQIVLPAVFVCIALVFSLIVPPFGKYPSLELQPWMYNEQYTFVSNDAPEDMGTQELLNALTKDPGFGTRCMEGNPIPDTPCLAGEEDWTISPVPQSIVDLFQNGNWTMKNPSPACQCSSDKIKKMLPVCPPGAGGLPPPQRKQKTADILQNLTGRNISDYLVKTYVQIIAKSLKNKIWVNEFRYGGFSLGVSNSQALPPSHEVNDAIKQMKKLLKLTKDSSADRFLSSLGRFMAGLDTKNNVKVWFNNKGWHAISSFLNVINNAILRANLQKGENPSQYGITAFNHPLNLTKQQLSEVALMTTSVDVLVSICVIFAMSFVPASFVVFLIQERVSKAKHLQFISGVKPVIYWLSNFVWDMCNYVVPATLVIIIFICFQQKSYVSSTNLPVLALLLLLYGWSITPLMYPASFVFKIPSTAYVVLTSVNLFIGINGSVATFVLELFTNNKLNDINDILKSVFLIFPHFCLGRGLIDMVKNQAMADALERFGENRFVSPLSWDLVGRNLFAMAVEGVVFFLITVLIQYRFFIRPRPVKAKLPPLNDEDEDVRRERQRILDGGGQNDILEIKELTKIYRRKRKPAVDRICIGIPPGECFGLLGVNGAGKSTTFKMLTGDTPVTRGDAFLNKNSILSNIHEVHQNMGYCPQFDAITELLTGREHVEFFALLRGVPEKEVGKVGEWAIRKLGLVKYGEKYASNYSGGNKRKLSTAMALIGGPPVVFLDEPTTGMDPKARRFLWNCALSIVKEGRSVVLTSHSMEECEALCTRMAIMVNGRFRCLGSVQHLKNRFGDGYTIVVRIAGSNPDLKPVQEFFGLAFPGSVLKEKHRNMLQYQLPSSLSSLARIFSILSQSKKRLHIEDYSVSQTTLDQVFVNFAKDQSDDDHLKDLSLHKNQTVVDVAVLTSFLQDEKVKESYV

| Molecule | Monolayer exclusion pressure [1] | ABCA1-dependent cholesterol efflux (result in words) (ABCA1 [2]) | ABCA1 stabilization (result in words) (ABCA1 [3]) | further results |
| --- | --- | --- | --- | --- |
| CSCC[C@H](NC(=O)[C@H](CCC(=O)O)NC(=O)[C@H](CCC(N)=O)NC(=O)[C@H](CCCNC(=N)N)NC(=O)[C@H](CC(C)C)NC(=O)CNC(=O)[C@H](CCC(=O)O)NC(=O)[C@@H](NC(=O)[C@H](CCC(=O)O)NC(=O)[C@H](CCCCN)NC(=O)[C@H](CCC(=O)O)NC(=O)[C@H](CC(C)C)NC(=O)[C@H](CC(N)=O)NC(=O)[C@H](CC(=O)O)NC(=O)[C@H](Cc1c[nH]c2ccccc12)NC(=O)[C@H](Cc1ccccc1)NC(=O)[C@H](CCC(=O)O)NC(=O)[C@H](CCC(N)=O)NC(=O)[C@@H](NC(=O)[C@@H](NC(=O)[C@@H]1CCCN1C(C)=O)C(C)C)[C@@H](C)O)[C@@H](C)O)C(=O)N[C@@H](CO)C(=O)N1CCC[C@H]1C(=O)N[C@@H](C)C(=O)N[C@@H](CC(C)C)C(=O)N[C@@H](CCC(=O)O)C(=O)N[C@@H](CC(=O)O)C(=O)N[C@@H](CC(C)C)C(=O)N[C@@H](CCCNC(=N)N)C(=O)N[C@@H](CCC(N)=O)C(=O)NCC(=O)N[C@@H](CC(C)C)C(=O)N[C@@H](CC(C)C)C(N)=O [Helical peptide 2/9] (Ac-PVTQEFWDNLEKETEGLRQEMSPALEDLRQGLL-NH2) | 19 dynes/cm | failed to stimulate ABCA1-dependent cholesterol efflux |  |  |
| CSCC[C@H](NC(=O)[C@H](CCC(=O)O)NC(=O)[C@H](CCC(N)=O)NC(=O)[C@H](CCCNC(=N)N)NC(=O)[C@H](CC(C)C)NC(=O)CNC(=O)[C@H](CCC(=O)O)NC(=O)[C@@H](NC(=O)[C@H](CCC(=O)O)NC(=O)[C@H](CCCCN)NC(=O)[C@H](CCC(=O)O)NC(=O)[C@H](CC(C)C)NC(=O)[C@H](CC(N)=O)NC(=O)[C@H](CC(=O)O)NC(=O)[C@H](Cc1c[nH]c2ccccc12)NC(=O)[C@H](Cc1ccccc1)NC(=O)[C@H](CCC(=O)O)NC(=O)[C@H](CCC(N)=O)NC(=O)[C@@H](NC(=O)[C@@H](NC(=O)[C@@H]1CCCN1C(C)=O)C(C)C)[C@@H](C)O)[C@@H](C)O)C(=O)N[C@@H](CO)C(N)=O [Helical peptide 2] (Ac-PVTQEFWDNLEKETEGLRQEMS-NH2) | 17 dynes/cm |  |  |  |
| CSCC[C@H](NC(=O)[C@H](CCC(=O)O)NC(=O)[C@H](CCC(=O)O)NC(=O)[C@H](CCC(N)=O)NC(=O)[C@H](Cc1c[nH]c2ccccc12)NC(=O)[C@H](CCCCN)NC(=O)[C@H](CCCCN)NC(=O)[C@H](CCC(N)=O)NC(=O)[C@H](Cc1ccccc1)NC(=O)[C@H](CC(=O)O)NC(=O)[C@H](CC(=O)O)NC(=O)[C@H](CC(C)C)NC(=O)[C@H](Cc1ccc(O)cc1)NC(=O)[C@@H]1CCCN1C(C)=O)C(=O)N[C@@H](CCC(=O)O)C(=O)N[C@@H](CC(C)C)C(=O)N[C@@H](Cc1ccc(O)cc1)C(=O)N[C@@H](CCCNC(=N)N)C(=O)N[C@@H](CCC(N)=O)C(=O)N[C@@H](CCCCN)C(=O)N[C@H](C(=O)N[C@@H](CCC(=O)O)C(=O)N1CCC[C@H]1C(=O)N[C@@H](C)C(=O)N[C@@H](CC(C)C)C(=O)N[C@@H](CCC(=O)O)C(=O)N[C@@H](CC(=O)O)C(=O)N[C@@H](CC(C)C)C(=O)N[C@@H](CCCNC(=N)N)C(=O)N[C@@H](CCC(N)=O)C(=O)NCC(=O)N[C@@H](CC(C)C)C(=O)N[C@@H](CC(C)C)C(N)=O)C(C)C [Helical peptide 4/9] (Ac-PYLDDFQKKWQEEMELYRQKVEPALEDLRQGLL-NH2) |  | failed to mediate ABCA1-dependent cholesterol efflux |  |  |
| CC(=O)N1CCC[C@H]1C(=O)N[C@@H](C)C(=O)N[C@@H](CC(C)C)C(=O)N[C@@H](CCC(=O)O)C(=O)N[C@@H](CC(=O)O)C(=O)N[C@@H](CC(C)C)C(=O)N[C@@H](CCCNC(=N)N)C(=O)N[C@@H](CCC(N)=O)C(=O)NCC(=O)N[C@@H](CC(C)C)C(=O)N[C@@H](CC(C)C)C(N)=O [Helical peptide 9] (Ac-PALEDLRQGLL-NH2) |  | failed to stimulate ABCA1-dependent cholesterol efflux | failed to prevent ABCA1 degradation |  |
| CC(=O)N1CCC[C@H]1C(=O)N[C@H](C(=O)N[C@@H](CC(C)C)C(=O)N[C@@H](CCC(=O)O)C(=O)N[C@@H](CO)C(=O)N[C@@H](Cc1ccccc1)C(=O)N[C@@H](CCCCN)C(=O)N[C@H](C(=O)N[C@@H](CO)C(=O)N[C@@H](Cc1ccccc1)C(=O)N[C@@H](CC(C)C)C(=O)N[C@@H](CO)C(=O)N[C@@H](C)C(=O)N[C@@H](CC(C)C)C(=O)N[C@@H](CCC(=O)O)C(=O)N[C@@H](CCC(=O)O)C(=O)N[C@@H](Cc1ccc(O)cc1)C(=O)N[C@H](C(=O)N[C@@H](CCCCN)C(=O)N[C@@H](CCCCN)C(=O)N[C@@H](CC(C)C)C(=O)N[C@@H](CC(N)=O)C(=O)N1CCC[C@H]1C(=O)N[C@@H](C)C(=O)N[C@@H](CC(C)C)C(=O)N[C@@H](CCC(=O)O)C(=O)N[C@@H](CC(=O)O)C(=O)N[C@@H](CC(C)C)C(=O)N[C@@H](CCCNC(=N)N)C(=O)N[C@@H](CCC(N)=O)C(=O)NCC(=O)N[C@@H](CC(C)C)C(=O)N[C@@H](CC(C)C)C(N)=O)[C@@H](C)O)C(C)C)C(C)C [Helical peptide 10/9] (Ac-PVLESFKVSFLSALEEYTKKLNPALEDLRQGLL-NH2) |  | failed to stimulate ABCA1-dependent cholesterol efflux | failed to prevent ABCA1 degradation |  |
| B1 |  |  |  | ABCA1-dependent cholesterol efflux (result in words) (ABCA1 [2]; listed as C-terminal domain of apoE): potent stimulator of cholesterol efflux; ABCA1-dependent cholesterol efflux (result in words) (ABCA1 [2]; listed as CT domain): more effective than full-length apoE3 |
